# Measurements taken from patent publication US20160138077A1, “MONITORING AND ASSESSING DEACETYLASE ENZYME ACTIVITY” (THE GENERAL HOSPITAL CORPORATION, priority 2013, published 2016).
# Legend:
# [1] = Stability of the enamide in HDAC buffer at pH 2-12 (HPLC/LCMS); format: physicochemical; settings: HDAC assay buffer, room temperature, 20 μM
# Method: HDAC buffer was adjusted to pH 2, 4, 6, 7, 8, 10 or 12 with […]. Compound 9 was dissolved in HDAC buffer at each pH to obtain 200 μL of a 20 μM solution. The solutions were kept at room temperature and 10 μL aliquots were analyzed at selected time points (t=0, 5, 10, 15, 30 and 60 minutes). Experiments were carried out in duplicate and the hydrolysis was monitored by HPLC and LCMS. HPLC measurements were made using a gradient elution system composed of water and acetonitrile with 0.01% ammonium formate at a flow rate of 1 mL/min on an Agilent Eclipse XDB-C18 chromatographic column (4.6 mm×150 mm). LCMS was performed with a gradient elution system composed of water and acetonitrile with 0.1% ammonium formate at a flow rate of 0.1 mL/min using an Agilent Eclipse XDB-C8 chromatographic column (5 μm particle size, 2.1 mm×150 mm).
# Bovine serum albumin = Bovine serum albumin (Bos taurus, UniProt P02769); assay: HP-1 deacetylation and protein binding assay (gel filtration, fluorescence)
# Chain of Bovine serum albumin (P02769 25-607): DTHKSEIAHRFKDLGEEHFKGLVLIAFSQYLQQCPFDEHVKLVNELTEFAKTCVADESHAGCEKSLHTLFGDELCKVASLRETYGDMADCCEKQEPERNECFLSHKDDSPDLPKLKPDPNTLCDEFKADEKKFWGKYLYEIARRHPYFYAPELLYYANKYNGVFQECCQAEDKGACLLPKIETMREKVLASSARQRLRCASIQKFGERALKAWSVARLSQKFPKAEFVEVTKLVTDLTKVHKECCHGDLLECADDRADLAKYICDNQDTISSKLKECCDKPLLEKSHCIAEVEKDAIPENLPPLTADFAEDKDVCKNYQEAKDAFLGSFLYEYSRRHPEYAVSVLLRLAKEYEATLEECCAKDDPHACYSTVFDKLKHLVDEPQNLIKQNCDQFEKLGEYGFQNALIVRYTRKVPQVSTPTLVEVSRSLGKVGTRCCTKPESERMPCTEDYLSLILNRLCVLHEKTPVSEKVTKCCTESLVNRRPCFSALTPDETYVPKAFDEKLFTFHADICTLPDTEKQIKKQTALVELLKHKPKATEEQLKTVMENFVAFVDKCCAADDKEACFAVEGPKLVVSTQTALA
# Method: Solutions containing HP-1 (20 μM) in 30 μL HDAC buffer with 5% DMSO were incubated at 37° C. for four hours in the presence or absence of HDAC3 (3.6 μM). After incubation with HDAC3, NaCNBH3 (1.4 mM) or vehicle (H2O) and BSA (6 mg/mL) or vehicle (HDAC buffer), were added to the solutions prior to an additional incubation at 37° C. for two hours (all reactions were run in triplicate). Following the second incubation, the final solutions (50 μL) were added to G-25 columns (GE Healthcare, Buckinghamshire, UK) pre-equilibrated with milliQ water. The columns were then centrifuged at 700×g for 60 seconds before addition of milliQ water (50 μL). […] 75 μL of each fraction was transferred to a well in a 96-well, black, clear-bottom plate (Corning Incorporated, Corning, N.Y.) and the fluorescence was detected using an IVIS Spectrum (Caliper, Hopkinton, Mass.). To obtain the fluorescence signals, the 465 nm excitation filter, 530 nm emission filter, and a 5 second exposure were used. For analysis, the total photon flux over the area of each well was determined.
# HP-1 deacetylation and protein binding assay. […] The fractions were transferred to a well in a 96-well, black, clear-bottom plate (Corning Incorporated, Corning, N.Y.) and the fluorescence was detected using an IVIS Spectrum (Caliper, Hopkinton, Mass.). […]
SMILES,"conversion of the enamide to the aldehyde ([1]; pH 2, 60 min)","conversion of the enamide to the aldehyde ([1]; pH 4-12, 60 min)","increase in protein-DHP-1 binding compared to controls (Bovine serum albumin; HP-1 (20 μM) incubated with HDAC3, then BSA with NaCNBH3 (Lanes F and H)) [fold]","increase in detected protein-DHP-1 binding relative to controls (Bovine serum albumin; HP-1 (20 μM) incubated with HDAC3, then BSA, no NaCNBH3 (lanes E and G)) [fold]"
CC(=O)NC=CCCCCNC(=O)c1ccccc1 [Compound 9],full conversion,no detectable conversion,–,–
O=CCCCCCNC(=O)CCCCCNc1ccc([N+](=O)[O-])c2nonc12 [DHP-1],–,–,5,2
